US20060160847A1, “2,4-Dihalogen-6-(c2-c3alkyl)-phenyl substituted tetramic acid derivatives” (priority 2003, published 2006)

Tests used:
Assay type in all cases: in vivo
[1] = tested on: green rice leaf hopper (Nephotettix cincticeps); assay: Nephotettix test; conditions: rice seedlings dipped
Method: (§1) To produce a suitable preparation of active compound, 1 part by weight of active compound is mixed with the stated amounts of solvent and emulsifier, and the concentrate is diluted with emulsifier-containing water to the desired concentration.
Rice seedlings (Oryza satina) are treated by being dipped into the preparation of active compound of the desired concentration and are populated wraith the green rice leaf hopper (Nephotettix cincticeps) while the leafs are still moist.
After the desired period of time, the kill in % is determined. 100% means that all leaf hoppers have been killed; 0% means that none of the leaf hoppers have been killed.

[2] = tested on: greenhouse red spider mite (Tetranychus urticae); assay: Tetranychus test (OP-resistant/dip treatment); conditions: 1.6 ppm active compound, Tetranychus urticae on dipped bean plants
Method: Tetranychus Test (OP-Resistant/Dip Treatment)
as §1
Bean plants (Phaseolus vulgaris) which are heavily infested by all stages of the greenhouse red spider mite (Tetranychus urticae) are dipped into a preparation of active compound of the desired concentration.
After the desired period of time, the effect in % is determined. 100% means that all spider mites have been killed; 0% means that none of the spider mites have been killed.

[3] = tested on: Test plants; assay: Post-emergence test; conditions: greenhouse
Method: To produce a suitable preparation of active compound, 1 part by weight of active compound is mixed with the stated amount of solvent, the stated amount of emulsifier is added and the concentrate is diluted with water to the desired concentration.
Test plants of a height of 5-15 cm are sprayed with the preparation of active compounds such that the particular amounts of active compound desired are applied per unit area. The concentration of the spray liquor is chosen such that the particular amounts of active compound desired are applied in 1000 l of water/ha.
After three weeks, the degree of damage to the plants is rated in % damage in comparison to the development of the untreated control.
0%=no effect (like untreated control)

[4] = tested on: Test plants; assay: Pre-emergence test; conditions: greenhouse
Method: Pre-Emergence Test [[[…]]] To produce a suitable preparation of active compound, 1 part by weight of active compound is mixed with the stated amount of solvent, the stated amount of emulsifier is added and the concentrate is diluted with water to the desired concentration. Seeds of the test plants are sown in normal soil. After about 24 hours, the soil is sprayed with the preparation of active compound such that the particular amounts of active compound desired are applied per unit area. The concentration of the spray liquor is chosen such that the particular amounts of active compound desired are applied in 1000 l of water/ha. After three weeks, the degree of damage to the plants is rated in % damage in comparison to the development of the untreated control. The figures denote: 0%=no effect (like untreated control) 100%=total destruction

[5] = tested on: cotton aphids (Aphis gossypii); assay: Aphis gossypii test; conditions: active compound concentration 200 ppm, infested cotton leaves dipped
Method: (§2) Aphis Gossypii Test [table] To produce a suitable preparation of active compound, 1 part by weight of active compound is mixed with the stated amounts of solvent and emulsifier, and the concentrate is diluted with emulsifier-containing water to the desired concentration. Cotton leaves (Gossypium hirsutuni) which are heavily infested by cotton aphids (Aphis gossypii) are treated by being dipped into the preparation of active compound of the desired concentration. After the desired period of time, the kill in % is determined. 100% means that all aphids have been killed; 0% means that none of the aphids have been killed.

[6] = tested on: green peach aphid (Myzus persicae); assay: Myzus test; conditions: infested cabbage leaves dipped
Method: as §2, with “Myzus” for “Aphis Gossypii”, “Cabbage” for “Cotton”, “(Brassica oleracea)” for “(Gossypium hirsutuni)”, “the green peach aphid (Myzus persicae)” for “cotton aphids (Aphis gossypii)”

[7] = tested on: larvae of the mustard beetle (Phaedon cochleariae); assay: Phaedon larvae test; conditions: 100 ppm active compound, Phaedon cochleariae larvae on dipped cabbage leaves
Method: Phaedon Larvae Test [[[…]]] To produce a suitable preparation of active compound, 1 part by weight of active compound is mixed with the stated amounts of solvent and emulsifier, and the concentrate is diluted with emulsifier-containing water to the desired concentration. Cabbage leaves (Brassica oleracea) are treated by being dipped into the preparation of active compound of the desired concentration and are populated with larvae of the mustard beetle (Phaedon cochleariae) while the leaves are still moist. After the desired period of time, the kill in % is determined. 100% means that all beetle larvae have been killed; 0% means that none of the beetle larvae have been killed.

[8] = tested on: white fly (Bemisia tabaci) eggs, larvae and puparia; assay: Bemisia test; conditions: active compound concentration 40 ppm, infested cotton plants sprayed
Method: Bemisia Test [table] To produce a suitable preparation of active compound, 1 part by weight of active compound is mixed with the stated amounts of solvent and emulsifier, and the concentrate is diluted with water to the desired concentration. Cotton plants (Gossypium hirsutum) which are infested by white fly (Bemisia tabaci) eggs, larvae and puparia are sprayed with the preparation of active compound of the desired concentration. After the desired period of time, the kill in % is determined. 100% means that all animals have been killed; 0% means that none of the animals have been killed.

[9] = active compound concentration 8 ppm

## CCc1cc(Cl)cc(Br)c1C1=C(O)C(C)(C)NC1=O [Ex. I-a-11]
[1]; active compound concentration 10 ppm
  Kill rate in % after 6^d: 100%
[2]
  Kill rate in % after 14d: 80%
[3]; 250 g of a.i./ha
  % damage, Alopecurus: 100%
  % damage, Setaria: 100%
  % damage, sugar beet: 0%

## CCc1cc(Cl)cc(Br)c1C1=C(O)C2(CCC(OC)CC2)NC1=O (single isomer, unassigned) [Ex. I-a-10]
[4]; 125 g of a.i./ha
  % damage, Alopecurus: 100%
  % damage, Avena fatua: 90%
  % damage, Bromus: 90%
  % damage, Digitaria: 100%
  % damage, soybean: 0%
[3]; 30 g of a.i./ha
  % damage, Alopecurus: 95%
  % damage, Avena fatua: 95%
  % damage, Bromus: 90%
  % damage, Lolium: 95%
  % damage, Setaria: 100%
  % damage, sugar beet: 0%
[3]; 30 g of a.i./ha, Digitaria
  % damage, Digitaria: 100%

## CCc1cc(Cl)cc(Cl)c1C1=C(O)C2(CCC(C)CC2)NC1=O (single isomer, unassigned) [Ex. I-a-2]
[5]
  Kill rate in % after 6^d: 90%
[6]; [9]
  Kill rate in % after 6^d: 95%
[3]; 125 g of a.i./ha
  % damage, Bromus: 90%
  % damage, Echinochloa: 100%
  % damage, Lolium: 100%
  % damage, Sorghum: 100%
[3]; 125 g of a.i./ha, cotton
  % damage, cotton: 0%

## CCc1cc(Br)cc(Cl)c1C1=C(O)C2(CCC(C)CC2)NC1=O (single isomer, unassigned) [Ex. I-a-6]
[4]; 60 g of a.i./ha
  % damage, Avena fatua: 90%
  % damage, Echinochloa: 100%
  % damage, Lolium: 95%
  % damage, soybean: 0%
[4]; 60 g of a.i./ha, Veronica
  % damage, Veronica: 100%
[4]; 60 g of a.i./ha, wheat
  % damage, wheat: 0%
[3]; 60 g of a.i./ha
  % damage, Abutilon: 70%
  % damage, Echinochloa: 95%
  % damage, Lolium: 90%
  % damage, Setaria: 100%
  % damage, Sorghum: 90%

## CCOCC(=O)OC1=C(c2c(Cl)cc(Br)cc2CC)C(=O)NC12CCC(C)CC2 (single isomer, unassigned) [Ex. I-b-3]
[1]; active compound concentration 0.1 ppm
  Kill rate in % after 6^d: 40%
[7]
  Kill rate in % after 7d: 100%

## CCc1cc(Cl)cc(Cl)c1C1=C(O)C2(CCOCC2)NC1=O [Ex. I-a-5]
[3]; 250 g of a.i./ha
  % damage, Alopecurus: 95%
  % damage, Avena fatua: 100%
  % damage, Setaria: 100%
  % damage, Sinapis: 70%

## CCc1cc(Br)cc(Cl)c1C1=C(OC(=O)C(C)C)C2(CCC(C)CC2)NC1=O (single isomer, unassigned) [Ex. I-b-2]
[4]; 30 g of a.i./ha
  % damage, Digitaria: 70%
  % damage, Echinochloa: 70%
  % damage, Lolium: 95%
  % damage, soybean: 0%
[4]; 30 g of a.i./ha, corn
  % damage, corn: 0%
[8]
  Kill rate in % after 10^d: 100%

## CCc1cc(Br)cc(Cl)c1C1=C(O)C2(CCC(OC)CC2)NC1=O (single isomer, unassigned) [Ex. I-a-7]
[6]; active compound concentration 1.6 ppm
  Kill rate in % after 6^d: 65%
[4]; 125 g of a.i./ha
  % damage, Avena fatua: 95%
  % damage, Bromus: 100%
  % damage, Echinochloa: 100%
[4]; 125 g of a.i./ha, Matricaria
  % damage, Matricaria: 80%
[3]; 250 g of a.i./ha
  % damage, Abutilon: 80%
  % damage, sugar beet: 0%
[3]; 250 g of a.i./ha, Amaranthus
  % damage, Amaranthus: 70%
[3]; 250 g of a.i./ha, Cyperus
  % damage, Cyperus: 80%

## CCc1cc(Cl)cc(Cl)c1C1=C(O)C2(CCC(OC)CC2)NC1=O (single isomer, unassigned) [Ex. I-a-3]
[6]; [9]
  Kill rate in % after 6^d: 85%
[4]; 30 g of a.i./ha
  % damage, Alopecurus: 100%
  % damage, Avena fatua: 70%
  % damage, Digitaria: 100%
  % damage, Lolium: 100%
[4]; 30 g of a.i./ha, Setaria
  % damage, Setaria: 100%
[4]; 30 g of a.i./ha, cotton
  % damage, cotton: 0%
[4]; 30 g of a.i./ha, sugar beet
  % damage, sugar beet: 0%
[3]; 250 g of a.i./ha
  % damage, Alopecurus: 100%
  % damage, Avena fatua: 100%
  % damage, Sinapis: 80%
